{"source": "patent US20130046087A1", "about": "“Substituted Cyclodextrin Derivatives Useful As Intermediates For Producing Biologically Active Materials” (Arcarios BV, priority 2010, published 2013)", "origin": "cited, not measured here", "test_system": "rabbit model of experimental osteoarthritis", "details": "subcutaneously administered, per Osteoarthritis and Cartilage (2008) 16:986-993"}
{"substance": "β-cyclodextrin polysulfate", "values": [{"measurement": "effect on cartilage lesions and osteocyte formation in the affected joints", "result": "reduced the cartilage lesions and osteocyte formation"}]}
